Ten compounds from US10717749B2, “Macrocyclic sulfondiimine compounds” (BAYER PHARMA AKTIENGESELLSCHAFT, priority 2015, dated 2020) can be followed below.

One test addresses T1, CDK2/CycE (Homo sapiens, UniProt P24941).
T1 construct: GST; purchased ProQinase GmbH (Freiburg, Germany); host or cells: insect cells (Sf9)
In words: CDK2/CycE kinase assay (Method 2a, TR-FRET, 10 μM ATP). The test is classed as biochemical. From the text: 2a. CDK2/CycE Kinase Assay:
CDK2/CycE-inhibitory activity of compounds of the present invention was quantified employing the CDK2/CycE TR-FRET assay as described in the following paragraphs:
Recombinant fusion proteins of GST and human CDK2 and of GST and human CycE, expressed in insect cells (Sf9) and purified by Glutathion-Sepharose affinity chromatography, were purchased from ProQinase GmbH (Freiburg, Germany). As substrate for the kinase reaction biotinylated peptide biotin-Ttds-YISPLKSPYKISEG (C-terminus in amid form) was used which can be purchased e.g. from the company JERINI Peptide Technologies (Berlin, Germany).
For the assay 50 nl of a 100 fold concentrated solution of the test compound in DMSO was pipetted into a black low volume 384 well microtiter plate (Greiner Bio-One, Frickenhausen, Germany), 2 μl of a solution of CDK2/CycE in aqueous assay buffer [50 mM Tris/HCl pH 8.0, 10 mM MgCl2, 1.0 mM dithiothreitol, 0.1 mM sodium ortho-vanadate, 0.01% (v/v) Nonidet-P40 (Sigma)] were added and the mixture was incubated for 15 min at 22° C. to allow pre-binding of the test compounds to the enzyme before the start of the kinase reaction. […] The concentration of CDK2/CycE was adjusted depending of the activity of the enzyme lot and was chosen appropriate to have the assay in the linear range, typical concentrations were in the range of 130 ng/mL. The reaction was stopped by the addition of 5 μl of a solution of TR-FRET detection reagents (0.2 μM streptavidine-XL665 [Cisbio Bioassays, Codolet, France] and 1 nM anti-RB(pSer807/pSer811)-antibody from BD Pharmingen [#558389] and 1.2 nM LANCE EU-W1024 labeled anti-mouse IgG antibody [Perkin-Elmer, product no. AD0077]) in an aqueous EDTA-solution (100 mM EDTA, 0.2% (w/v) bovine serum albumin in 100 mM HEPES pH 7.5).
(§1) The resulting mixture was incubated 1 h at 22° C. to allow the formation of complex between the phosphorylated biotinylated peptide and the detection reagents. Subsequently the amount of phosphorylated substrate was evaluated by measurement of the resonance energy transfer from the Eu-chelate to the streptavidine-XL. Therefore, the fluorescence emissions at 620 nm and 665 nm after excitation at 350 nm was measured in a TR-FRET reader, e.g. a Rubystar (BMG Labtechnologies, Offenburg, Germany) or a Viewlux (Perkin-Elmer). The ratio of the emissions at 665 nm and at […] was taken as the measure for the amount of phosphorylated substrate. The data were normalised (enzyme reaction without inhibitor=0% inhibition, all other assay components but no enzyme=100% inhibition).
A general note: TR-FRET usually uses a lanthanide donor and a delayed reading to cut background.

Another test deals with T2, CDK9/CycT1 (Homo sapiens, UniProt P50750).
T2 construct: Recombinant full-length His-tagged human CDK9 and CycT1; His; purchased Invitrogen PV4131; host or cells: insect cells
Briefly: CDK9/CycT1 high ATP kinase assay (Method 1b, TR-FRET, 2 mM ATP). The format is biochemical. As to conditions: for IC50: Method 1b, 2 mM ATP; for Selectivity high ATP CDK9 over high ATP CDK2: IC50 (high ATP CDK2)/IC50 (high ATP CDK9): Methods 1b and 2b, minimal values. The method, then:
1b. CDK9/CycT1 High ATP Kinase Assay
CDK9/CycT1-inhibitory activity of compounds of the present invention at a high ATP concentration after preincubation of enzyme and test compounds was quantified employing the CDK9/CycT1 TR-FRET assay as described in the following paragraphs.
Recombinant full-length His-tagged human CDK9 and CycT1, expressed in insect cells and purified by Ni-NTA affinity chromatography, were purchase from Invitrogen (Cat. No PV4131). As substrate for the kinase reaction biotinylated peptide biotin-Ttds-YISPLKSPYKISEG (C-terminus in amid form) was used which can be purchased e.g. from the company JERINI peptide technologies (Berlin, Germany). For the assay 50 nl of a 100 fold concentrated solution of the test compound in DMSO was pipetted into a black low volume 384 well microtiter plate (Greiner Bio-One, Frickenhausen, Germany), 2 μl of a solution of CDK9/CycT1 in aqueous assay buffer [50 mM Tris/HCl pH 8.0, 10 mM MgCl2, 1.0 mM dithiothreitol, 0.1 mM sodium ortho-vanadate, 0.010% (v/v) Nonidet-P40 (Sigma)] were added and the mixture was incubated for 15 min at 22° C. to allow pre-binding of the test compounds to the enzyme before the start of the kinase reaction. Then the kinase reaction was started by the addition of 3 μl of a solution of adenosine-tri-phosphate (ATP, 3.3 mM=> final conec. in the 5 μl assay volume is 2 mM) and substrate (1.67 μM=> final conc. in the 5 μl assay volume is 1 μM) in assay buffer and the resulting mixture was incubated for a reaction time of 25 min at 22° C. The concentration of CDK9/CycT1 was adjusted depending of the activity of the enzyme lot and was chosen appropriate to have the assay in the linear range, typical concentrations were in the range of 0.5 μg/mL. The reaction was stopped by the addition of 5 μl of a solution of TR-FRET detection reagents (0.2 μM streptavidine-XL665 [Cisbio Bioassays, Codolet, France] and 1 nM anti-RB(pSer807/pSer811)-antibody from BD Pharmingen [#558389] and 1.2 nM LANCE EU-W1024 labeled anti-mouse IgG antibody [Perkin-Elmer, product no. AD0077]) in an aqueous EDTA-solution (100 mM EDTA, 0.2% (w/v) bovine serum albumin in 100 mM HEPES pH 7.5).
as §1, with “HTRF” for “TR-FRET”

T2 sequence (P50750 whole entry): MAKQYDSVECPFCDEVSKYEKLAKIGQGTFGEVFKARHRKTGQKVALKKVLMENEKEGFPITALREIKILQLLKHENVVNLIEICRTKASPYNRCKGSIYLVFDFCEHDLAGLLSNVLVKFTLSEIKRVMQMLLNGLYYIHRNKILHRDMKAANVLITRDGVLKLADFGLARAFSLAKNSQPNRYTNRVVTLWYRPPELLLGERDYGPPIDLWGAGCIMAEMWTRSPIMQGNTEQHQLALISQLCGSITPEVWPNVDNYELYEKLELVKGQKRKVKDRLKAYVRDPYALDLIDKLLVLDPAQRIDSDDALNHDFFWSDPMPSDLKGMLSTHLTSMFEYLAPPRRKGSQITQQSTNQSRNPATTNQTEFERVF
T2 sequence (O60563 whole entry partner): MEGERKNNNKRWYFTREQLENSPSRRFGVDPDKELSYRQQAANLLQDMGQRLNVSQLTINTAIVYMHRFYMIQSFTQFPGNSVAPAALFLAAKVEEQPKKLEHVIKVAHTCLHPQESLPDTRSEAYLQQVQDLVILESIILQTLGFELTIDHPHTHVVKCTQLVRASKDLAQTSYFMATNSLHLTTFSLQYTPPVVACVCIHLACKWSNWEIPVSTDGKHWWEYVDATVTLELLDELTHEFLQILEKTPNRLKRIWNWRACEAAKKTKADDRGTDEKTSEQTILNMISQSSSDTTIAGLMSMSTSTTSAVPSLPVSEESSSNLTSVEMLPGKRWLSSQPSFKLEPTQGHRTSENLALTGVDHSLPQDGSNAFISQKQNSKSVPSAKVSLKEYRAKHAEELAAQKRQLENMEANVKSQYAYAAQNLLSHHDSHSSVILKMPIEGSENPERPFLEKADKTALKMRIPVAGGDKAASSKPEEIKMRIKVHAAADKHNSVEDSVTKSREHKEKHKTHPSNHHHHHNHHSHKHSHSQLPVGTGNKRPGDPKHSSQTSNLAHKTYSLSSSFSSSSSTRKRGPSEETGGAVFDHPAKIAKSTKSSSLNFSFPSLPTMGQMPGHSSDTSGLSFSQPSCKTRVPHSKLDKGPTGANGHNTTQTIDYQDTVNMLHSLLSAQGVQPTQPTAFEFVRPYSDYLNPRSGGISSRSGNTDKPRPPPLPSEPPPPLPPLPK

What is called IC50 is the midpoint of a concentration-inhibition curve. Low values mean higher potency, high ones lower potency. With `CN=S(C)(=N)Cc1cc2nc(c1)OCCCOc1cc(F)ccc1-c1cc(ncc1F)N2` (racemic) [Example 4, (rac)-8-[(N,S-dimethylsulfonodiimidoyl)methyl]-15,19-difluoro-3,4-dihydro-2H,11H-10,6-(azeno)-12,16-(metheno)-1,5,11,13-benzodioxadiazacyclooctadecine], on CDK2/CycE, it took 37.3 nM to reach half-maximal inhibition (IC50). At CDK9/CycT1, the concentration for half-maximal inhibition (IC50) is 3.7 nM and the “Selectivity high ATP CDK9 over high ATP CDK2: IC50 (high ATP CDK2)/IC50 (high ATP CDK9)” value (“Selectivity high ATP CDK9” below) was found to be 168.

At CDK2/CycE, `CS(=N)(=N)Cc1cc2nc(c1)OCCCOc1cc(F)ccc1-c1cc(ncc1F)N2` [Example 1, 15,19-difluoro-8-[(S-methylsulfonodiimidoyl)methyl]-3,4-dihydro-2H,11H-10,6-(azeno)-12,16-(metheno)-1,5,11,13-benzodioxadiazacyclooctadecine] displayed an IC50 of 16.4 nM. For the same compound, on CDK9/CycT1, the concentration for half-maximal inhibition (IC50) was 2 nM and the “Selectivity high ATP CDK9” value came out at 70.

Take `CS(=N)(Cc1cc2nc(c1)OCCCOc1cc(F)ccc1-c1cc(ncc1F)N2)=NC#N` (racemic) [Example 3, (rac)-[{[15,19-difluoro-3,4-dihydro-2H,11H-10,6-(azeno)-12,16-(metheno)-1,5,11,13-benzodioxadiazacyclooctadecin-8-yl]methyl}(imino)methyl-λ^6-sulfanylidene]cyanamide]: half-maximal inhibition at CDK2/CycE (IC50) was put at 6 nM. For the same compound, on CDK9/CycT1, the IC50 came out at 1.7 nM and the “Selectivity high ATP CDK9” value came to 36.7.

Regarding `CS(=N)(Cc1cc2nc(c1)OCCCOc1cc(F)ccc1-c1cc(ncc1F)N2)=NCCCO` (racemic) [Example 2, (rac)-3-(2-{[15,19-difluoro-3,4-dihydro-2H,11H-10,6-(azeno)-12,16-(metheno)-1,5,11,13-benzodioxadiazacyclooctadecin-8-yl]methyl}-2-methyl-2λ^6-diazathia-1,2-dien-1-yl)propan-1-ol], the IC50 at CDK2/CycE stood at 22.5 nM; on CDK9/CycT1, 2 nM. Moreover, on CDK9/CycT1, the “Selectivity high ATP CDK9” value is reported as 123.

Regarding `CS(=N)(Cc1cc2cc(c1)OCCCCOc1cc(F)ccc1-c1nc(ncc1F)N2)=NC1CC1` (racemic) [Example 9, (rac)-9-[(N-cyclopropyl-S-methylsulfonodiimidoyl)methyl]-16,20-difluoro-2,3,4,5-tetrahydro-12H-13,17-(azeno)-11,7-(metheno)-1,6,12,14-benzodioxadiazacyclononadecine], the values for the 50% inhibitory concentration (IC50) at CDK2/CycE and against CDK9/CycT1 were 143 nM and 2.3 nM, respectively. Further, the “Selectivity high ATP CDK9” value at CDK9/CycT1 was 433.

At CDK2/CycE, `CS(=N)(=N)Cc1cc2cc(c1)OCCCCOc1c(F)cccc1-c1nc(ncc1F)N2` [Example 7, 16,21-difluoro-9-[(S-methylsulfonodiimidoyl)methyl]-2,3,4,5-tetrahydro-12H-13,17-(azeno)-11,7-(metheno)-1,6,12,14-benzodioxadiazacyclononadecine] showed a half-inhibitory concentration (IC50) of 1170 nM. In addition, the “Selectivity high ATP CDK9” value on CDK9/CycT1 was 2132.

Turning to `CN=S(C)(=N)Cc1cc2cc(c1)OCCCCOc1cc(F)ccc1-c1nc(ncc1F)N2` (racemic) [Example 10, (rac)-9-[(N,S-dimethylsulfonodiimidoyl)methyl]-16,20-difluoro-2,3,4,5-tetrahydro-12H-13,17-(azeno)-11,7-(metheno)-1,6,12,14-benzodioxadiazacyclononadecine], at CDK9/CycT1, the concentration for half-maximal inhibition (IC50) is 3.4 nM and the “Selectivity high ATP CDK9” value is 485.

At CDK2/CycE, `CS(=N)(=N)Cc1cc2cc(c1)OCCCCOc1cc(F)ccc1-c1nc(ncc1F)N2` [Example 5, 16,20-difluoro-9-[(S-methylsulfonodiimidoyl)methyl]-2,3,4,5-tetrahydro-12H-13,17-(azeno)-11,7-(metheno)-1,6,12,14-benzodioxadiazacyclononadecine] registered an IC50 of 92.6 nM. On CDK9/CycT1, the IC50 turned out to be 2.1 nM and the “Selectivity high ATP CDK9” value was 590.

With `CS(=N)(=N)Cc1cc2cc(c1)OCCCCOc1c(ccc(F)c1F)-c1nc(ncc1F)N2` [Example 6, 16,20,21-trifluoro-9-[(S-methylsulfonodiimidoyl)methyl]-2,3,4,5-tetrahydro-12H-13,17-(azeno)-11,7-(metheno)-1,6,12,14-benzodioxadiazacyclononadecine], the IC50 on CDK2/CycE turned out to be 1430 nM. On CDK9/CycT1, the IC50 is 5.9 nM and the “Selectivity high ATP CDK9” value came out at 2118.

Turning to `CS(=N)(=N)Cc1cc2nc(c1C#N)OCCCOc1cc(F)ccc1-c1cc(ncc1F)N2` [Example 8, 15,19-difluoro-8-[(S-methylsulfonodiimidoyl)methyl]-3,4-dihydro-2H,11H-10,6-(azeno)-12,16-(metheno)-1,5,11,13-benzodioxadiazacyclooctadecine-7-carbonitrile], the IC50 on CDK2/CycE was 71.2 nM; against CDK9/CycT1, 1.5 nM. On CDK9/CycT1, the “Selectivity high ATP CDK9” value is 252.
